In PubChem BioAssay AID1259407 (Chemical Carcinogenesis Research Information System (CCRIS), 2018):
The source made the active and inactive calls. No rule for the calls is given here.

Test system: CCRIS mutagenicity, Ames/micronucleus/aberration tests
Test: CCRIS mutagenicity studies
[1] = Test System: AMES SALMONELLA TYPHIMURIUM, Strain/Indicator: TA98, Metabolic Activation: NONE, Method: STANDARD PLATE
[2] = Test System: AMES SALMONELLA TYPHIMURIUM, Strain/Indicator: TA100, Metabolic Activation: NONE, Method: STANDARD PLATE
[3] = Test System: AMES SALMONELLA TYPHIMURIUM, Strain/Indicator: TA1535, Metabolic Activation: NONE, Method: STANDARD PLATE
[4] = Test System: AMES SALMONELLA TYPHIMURIUM, Strain/Indicator: TA1537, Metabolic Activation: NONE, Method: STANDARD PLATE
[5] = Test System: AMES SALMONELLA TYPHIMURIUM, Strain/Indicator: TA98, Metabolic Activation: RAT, LIVER, S-9, AROCLOR 1254, Method: STANDARD PLATE
[6] = Test System: AMES SALMONELLA TYPHIMURIUM, Strain/Indicator: TA100, Metabolic Activation: RAT, LIVER, S-9, AROCLOR 1254, Method: STANDARD PLATE
[7] = Test System: AMES SALMONELLA TYPHIMURIUM, Strain/Indicator: TA1535, Metabolic Activation: RAT, LIVER, S-9, AROCLOR 1254, Method: STANDARD PLATE
[8] = Test System: AMES SALMONELLA TYPHIMURIUM, Strain/Indicator: TA1537, Metabolic Activation: RAT, LIVER, S-9, AROCLOR 1254, Method: STANDARD PLATE
[9] = Test System: AMES SALMONELLA TYPHIMURIUM, Strain/Indicator: TA98, Metabolic Activation: S-9, Method: STANDARD PLATE
[10] = Test System: AMES SALMONELLA TYPHIMURIUM, Strain/Indicator: TA100, Metabolic Activation: S-9, Method: STANDARD PLATE

For `O=[N+]([O-])c1ccc2ccc3c4c(cc5ccc1c2c53)CCCC4`, the mutagenic call [1] was “active; positive” and the mutagenic call [2] was “inactive; negative”.

With `CCc1cccc2c3c([nH]c12)C(C)(CC)OCC3` (stereo not drawn) the mutagenic call [1] was “inactive; negative”, the mutagenic call (Test System: AMES SALMONELLA TYPHIMURIUM, Strain/Indicator: TA98, Metabolic Activation: RAT, LIVER, S-9, Method: STANDARD PLATE) was “inactive; negative” and the mutagenic call [2] was “inactive; negative”. The mutagenic call (Test System: AMES SALMONELLA TYPHIMURIUM, Strain/Indicator: TA100, Metabolic Activation: RAT, LIVER, S-9, Method: STANDARD PLATE) was “inactive; negative”, the mutagenic call [3] was “inactive; negative” and the mutagenic call (Test System: AMES SALMONELLA TYPHIMURIUM, Strain/Indicator: TA1535, Metabolic Activation: RAT, LIVER, S-9, Method: STANDARD PLATE) was “inactive; negative”. The mutagenic call [4] was “inactive; negative”, the mutagenic call (Test System: AMES SALMONELLA TYPHIMURIUM, Strain/Indicator: TA1537, Metabolic Activation: RAT, LIVER, S-9, Method: STANDARD PLATE) was “inactive; negative” and the mutagenic call (Test System: E. COLI, Strain/Indicator: WP2 UVRA, Metabolic Activation: NONE, Method: STANDARD PLATE) was “inactive; negative”. For the same compound, the mutagenic call (Test System: E. COLI, Strain/Indicator: WP2 UVRA, Metabolic Activation: RAT, LIVER, S-9, Method: STANDARD PLATE) was “inactive; negative”.

For `O=S(=O)(Oc1ccc(Cl)cc1Cl)c1cccc2cccnc12`, the mutagenic call [1] was “inactive; negative”, the mutagenic call [5] was “active; positive” and the mutagenic call [2] was “inactive; negative”. The mutagenic call [6] was “active; positive”, the mutagenic call [3] was “inactive; negative” and the mutagenic call [7] was “inactive; negative”. For the same compound, the mutagenic call [4] was “inactive; negative” and the mutagenic call [8] was “inactive; negative”.

With `COc1ccc(N/C=C/C2=[N+](C)c3ccccc3C2(C)C)c(OC)c1` the mutagenic call (Test System: Ames Salmonella typhimurium, Strain/Indicator: TA98, Metabolic Activation: None, Method: Preincubation) was “inactive; negative”, the mutagenic call (Test System: Ames Salmonella typhimurium, Strain/Indicator: TA98, Metabolic Activation: Rat, Liver, S-9, Aroclor 1254, Method: Preincubation) was “inactive; negative” and the mutagenic call (Test System: Ames Salmonella typhimurium, Strain/Indicator: TA100, Metabolic Activation: None, Method: Preincubation) was “inactive; negative”. The mutagenic call (Test System: Ames Salmonella typhimurium, Strain/Indicator: TA100, Metabolic Activation: Rat, Liver, S-9, Aroclor 1254, Method: Preincubation) was “inactive; negative”, the mutagenic call (Test System: Ames Salmonella typhimurium, Strain/Indicator: TA102, Metabolic Activation: None, Method: Preincubation) was “inactive; negative” and the mutagenic call (Test System: Ames Salmonella typhimurium, Strain/Indicator: TA102, Metabolic Activation: Rat, Liver, S-9, Aroclor 1254, Method: Preincubation) was “inactive; negative”. The mutagenic call (Test System: Ames Salmonella typhimurium, Strain/Indicator: TA1535, Metabolic Activation: None, Method: Preincubation) was “inactive; negative” and the mutagenic call (Test System: Ames Salmonella typhimurium, Strain/Indicator: TA1535, Metabolic Activation: Rat, Liver, S-9, Aroclor 1254, Method: Preincubation) was “inactive; negative”.

For `CC(=O)Nc1ccc(Cc2ccc(NC(C)=O)c(Cl)c2)cc1Cl`, the mutagenic call (Test System: AMES SALMONELLA TYPHIMURIUM, Strain/Indicator: TA100, Metabolic Activation: NONE, Method: PREINCUBATION) was “inactive; negative”, the mutagenic call (Test System: AMES SALMONELLA TYPHIMURIUM, Strain/Indicator: TA100, Metabolic Activation: RAT, LIVER, S-9, AROCLOR 1254 (50 µL), Method: PREINCUBATION) was “inactive; negative” and the mutagenic call (Test System: AMES SALMONELLA TYPHIMURIUM, Strain/Indicator: TA100, Metabolic Activation: RAT, LIVER, S-9, AROCLOR 1254 (100 OR 200 µL), Method: PREINCUBATION) was “active; positive”.

With `Nc1cc(S(=O)(=O)O)cc2cc(S(=O)(=O)O)c(N=Nc3ccccc3)c(O)c12` the mutagenic call [1] was “inactive; negative”, the mutagenic call (Test System: AMES SALMONELLA TYPHIMURIUM, Strain/Indicator: TA98, Metabolic Activation: RAT LIVER S-9, AROCLOR 1254, Method: STANDARD PLATE) was “inactive; negative” and the mutagenic call [2] was “inactive; negative”. The mutagenic call (Test System: AMES SALMONELLA TYPHIMURIUM, Strain/Indicator: TA100, Metabolic Activation: RAT LIVER S-9, AROCLOR 1254, Method: STANDARD PLATE) was “inactive; negative”.

`Cc1ccc(C(C)C)cc1O` was tested, and the mutagenic call [1] was “inactive; negative”, the mutagenic call [9] was “inactive; negative” and the mutagenic call [2] was “inactive; negative”. For the same compound, the mutagenic call [10] was “inactive; negative”.

With `Cc1ccc2cc3c4c(ccc3c3c2c1C[C@H]3O)[C@@H](O)[C@H](O)C=C4` the mutagenic call (Test System: CHINESE HAMSTER V-79, Strain/Indicator: V-79/8-AZAGUANINE, Metabolic Activation: RAT, LIVER, S-9, AROCLOR, Method: STANDARD PLATE) was “active; positive”.

In the case of `Nc1cc(C(F)(F)F)ccc1Cl`, the mutagenic call [1] is reported as “inactive; negative”, the mutagenic call [5] is reported as “inactive; negative” and the mutagenic call [2] is reported as “inactive; negative”. For the same compound, the mutagenic call [6] was “inactive; negative”, the mutagenic call [3] was “inactive; negative” and the mutagenic call [7] was “inactive; negative”. For the same compound, the mutagenic call [4] was “inactive; negative”, the mutagenic call [8] was “inactive; negative” and the mutagenic call (Test System: AMES SALMONELLA TYPHIMURIUM, Strain/Indicator: TA1538, Metabolic Activation: NONE, Method: STANDARD PLATE) was “inactive; negative”. The mutagenic call (Test System: AMES SALMONELLA TYPHIMURIUM, Strain/Indicator: TA1538, Metabolic Activation: RAT, LIVER, S-9, AROCLOR 1254, Method: STANDARD PLATE) was “inactive; negative”.

With `O=C(CCl)Nc1snc2cc(Cl)ccc12` the mutagenic call [1] was “inactive; negative”, the mutagenic call [9] was “active; positive” and the mutagenic call [2] was “active; positive”. For the same compound, the mutagenic call [10] was “active; positive”, the mutagenic call [3] was “inactive; negative” and the mutagenic call (Test System: AMES SALMONELLA TYPHIMURIUM, Strain/Indicator: TA1535, Metabolic Activation: S-9, Method: STANDARD PLATE) was “inactive; negative”. The mutagenic call [4] was “active; positive” and the mutagenic call (Test System: AMES SALMONELLA TYPHIMURIUM, Strain/Indicator: TA1537, Metabolic Activation: S-9, Method: STANDARD PLATE) was “active; positive”.
